pIC50: −log10 of the molar value. Like-named read-outs stand apart in the source and are kept apart here.
Experiments:
Format in all cases: cell-based
AKT2 = target: T1, AKT2 (Homo sapiens, UniProt P31751); assay: Live cell AKT2 target engagement by NanoBRET competitive probe displacement; conditions: HEK293 cells transfected with kinase-NanoLuciferase fusion, 2 h at 37° C.
T1 construct: expressed in transfected cells; host or cells: HEK293
Method in brief: (§1)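 Luminescence ratio 600/460 nm served as readout after HEK293 cells bearing transiently expressed kinase–NanoLuciferase fusions were exposed 2 h at 37 °C to test compound alongside an ATP-competitive fluorescent tracer near EC50. Extracellular signal was quenched by a luciferase inhibitor.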

AKT1 WT = target: T2, AKT1 WT (Homo sapiens, UniProt P31749); assay: Live cell AKT1 WT target engagement by NanoBRET competitive probe displacement; conditions: HEK293 cells transfected with kinase-NanoLuciferase fusion, 2 h at 37° C.
T2 construct: expressed in transfected cells; host or cells: HEK293
T2 sequence (P31749 whole entry, the tested form may be a part): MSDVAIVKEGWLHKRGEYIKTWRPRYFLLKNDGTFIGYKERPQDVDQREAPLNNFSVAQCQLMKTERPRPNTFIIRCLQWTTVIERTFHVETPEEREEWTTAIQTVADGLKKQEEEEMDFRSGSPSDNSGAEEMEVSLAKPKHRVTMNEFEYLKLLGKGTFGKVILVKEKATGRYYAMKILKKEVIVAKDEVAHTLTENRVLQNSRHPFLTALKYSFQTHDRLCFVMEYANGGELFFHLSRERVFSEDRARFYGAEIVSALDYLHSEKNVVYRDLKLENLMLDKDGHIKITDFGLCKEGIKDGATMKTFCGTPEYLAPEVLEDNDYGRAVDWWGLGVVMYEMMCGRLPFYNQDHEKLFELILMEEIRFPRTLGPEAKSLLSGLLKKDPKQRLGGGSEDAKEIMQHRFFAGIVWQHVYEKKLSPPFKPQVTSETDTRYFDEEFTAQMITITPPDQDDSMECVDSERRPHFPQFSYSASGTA
Method in brief: as §1

[1] = tested on: LAPC4 prostate cancer cells; assay: Antiproliferative effects in LAPC4 cells (CellTiter Glo); conditions: LAPC4 cells (AKT1 E17K allele), read-out: LAPC4 proliferation IC50
Method in brief: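 IC50 values reflect 72 h compound treatment of cells plated at 1,000 per well, with CellTiter Glo luminescence as the viability read-out.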

AKT1 E17K = target: T3, AKT1 E17K (Homo sapiens, UniProt P31749, E17K); assay: Live cell AKT1 E17K target engagement by NanoBRET competitive probe displacement; conditions: HEK293 cells transfected with kinase-NanoLuciferase fusion, 2 h at 37° C.
T3 construct: expressed in transfected cells; host or cells: HEK293
T3 sequence (P31749 whole entry E17K, the tested form may be a part): as the sequence (P31749 whole entry, the tested form may be a part) above, with E17K counted along it
Method in brief: as §1

T1 sequence (P31751 whole entry, the tested form may be a part): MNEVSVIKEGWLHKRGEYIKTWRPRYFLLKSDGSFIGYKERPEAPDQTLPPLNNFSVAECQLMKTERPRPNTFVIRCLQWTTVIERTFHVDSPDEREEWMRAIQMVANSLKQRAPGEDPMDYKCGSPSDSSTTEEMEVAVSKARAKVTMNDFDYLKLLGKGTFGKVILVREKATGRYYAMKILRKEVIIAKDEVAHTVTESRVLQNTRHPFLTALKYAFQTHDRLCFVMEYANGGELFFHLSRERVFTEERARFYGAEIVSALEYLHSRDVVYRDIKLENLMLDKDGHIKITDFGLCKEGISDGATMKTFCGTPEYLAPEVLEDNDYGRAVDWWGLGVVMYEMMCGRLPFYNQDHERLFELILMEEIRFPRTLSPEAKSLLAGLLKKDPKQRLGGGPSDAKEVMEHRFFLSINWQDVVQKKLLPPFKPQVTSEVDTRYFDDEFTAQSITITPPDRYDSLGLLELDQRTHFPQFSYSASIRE

Row | pIC50 (AKT2) | pIC50 (AKT1 WT) | pIC50 ([1]; 72 h) | pIC50 (AKT1 E17K) | pIC50 ([1]; Homo sapiens, LAPC4, 72 h) | SMILES
1 | < 5.00 | < 6.00 | 5.46 | < 6.00 | – | C=CC(=O)N1CCC(N[C@H]2CCc3cc(-n4c(-c5cccnc5N)nc5ccc(-n6cccn6)nc54)ccc32)C(O)C1 (single isomer, unassigned) [Example 142, 1-[(3*,4*)-4-{[(1S)-5-[2-(2-aminopyridin-3-yl)-5-(pyrazol-1-yl)imidazo[4,5-b]pyridin-3-yl]-2,3-dihydro-1H-inden-1-yl]amino}-3-hydroxypiperidin-1-yl]prop-2-en-1-one]
2 | 6.43 | 6.24 | 6.07 | 7.49 | – | C=CC(=O)N1CCCC(c2cn([C@H]3CCc4cc(-n5c(-c6cccnc6N)nc6ccc(-n7cccn7)nc65)ccc43)nn2)C1 (single isomer, unassigned) [Example 168, 1-((*)-3-(1-((S)-5-(2-(2-aminopyridin-3-yl)-5-(1H-pyrazol-1-yl)-3H-imidazo[4,5-b]pyridin-3-yl)-2,3-dihydro-1H-inden-1-yl)-1H-1,2,3-triazol-4-yl)piperidin-1-yl)prop-2-en-1-one]
3 | 7.57 | 6.08 | – | 7.80 | 6.34 | C=CC(=O)N1CCC(N[C@H]2CCc3cc(-n4c(-c5cccnc5N)nc5ccc(OC6CC6)nc54)ccc32)CC1 [Example 198, 1-(4-{[(1S)-5-[2-(2-aminopyridin-3-yl)-5-cyclopropoxyimidazo[4,5-b]pyridin-3-yl]-2,3-dihydro-1H-inden-1-yl]amino}piperidin-1-yl)prop-2-en-1-one]
4 | 5.91 | 7.08 | 6.31 | < 6.00 | – | C=CC(=O)N1CCC(N[C@H]2CCc3cc(-n4c(-c5cccnc5N)nc5ccc(-n6cccn6)nc54)ccc32)C(C#N)C1 (single isomer, unassigned) [Example 155, (3*,4*)-1-acryloyl-4-(((S)-5-(2-(2-aminopyridin-3-yl)-5-(1H-pyrazol-1-yl)-3H-imidazo[4,5-b]pyridin-3-yl)-2,3-dihydro-1H-inden-1-yl)amino)piperidine-3-carbonitrile]
5 | 7.46 | 7.93 | – | 7.91 | 7.60 | C=CC(=O)Nc1ccccc1C(=O)N[C@H]1CCc2cc(-n3c(-c4cccnc4N)nc4ccc(-n5cccn5)nc43)ccc21 [Example 1, (S)-2-acrylamido-N-(5-(2-(2-aminopyridin-3-yl)-5-(1H-pyrazol-1-yl)-3H-imidazo[4,5-b]pyridin-3-yl)-2,3-dihydro-1H-inden-1-yl)benzamide]
6 | 7.46 | 5.63 | 6.41 | 8.04 | – | C=CC(=O)N1CCC(N[C@@H]2c3ccc(-n4c(-c5ccccc5F)nc5ccc(-n6cccn6)nc54)cc3CC2F)CC1 (single isomer, unassigned) [Example 300, 1-(4-(((1R,2*)-2-fluoro-5-(2-(2-fluorophenyl)-5-(1H-pyrazol-1-yl)-3H-imidazo[4,5-b]pyridin-3-yl)-2,3-dihydro-1H-inden-1-yl)amino)piperidin-1-yl)prop-2-en-1-one]
7 | 6.60 | 7.30 | – | 7.09 | 6.67 | C=CC(=O)N1CC(N[C@H]2CCc3cc(-n4c(-c5cccnc5N)nc5ccc(-n6cccn6)nc54)ccc32)C1 [Example 28, (S)-1-(3-((5-(2-(2-aminopyridin-3-yl)-5-(1H-pyrazol-1-yl)-3H-imidazo[4,5-b]pyridin-3-yl)-2,3-dihydro-1H-inden-1-yl)amino)azetidin-1-yl)prop-2-en-1-one]
8 | 6.24 | 7.59 | 6.44 | 6.78 | – | C=CC(=O)N1[C@H](C)CC(N[C@H]2CCc3cc(-n4c(-c5cccnc5N)nc5ccc(-n6cccn6)nc54)ccc32)C[C@@H]1C (single isomer, unassigned) [Example 87, 1-((2S,4*,6R)-4-(((R)-5-(2-(2-aminopyridin-3-yl)-5-(1H-pyrazol-1-yl)-3H-imidazo[4,5-b]pyridin-3-yl)-2,3-dihydro-1H-inden-1-yl)amino)-2,6-dimethylpiperidin-1-yl)prop-2-en-1-one]
9 | 6.61 | 7.85 | 6.79 | 7.15 | – | C=CC(=O)N1C[C@H]2C[C@@H]1CC2N[C@H]1CCc2cc(-n3c(-c4cccnc4N)nc4ccc(-n5cccn5)nc43)ccc21 (single isomer, unassigned) [Example 137, 1-[(1R,4R,5*)-5-{[(1S)-5-[2-(2-aminopyridin-3-yl)-5-(pyrazol-1-yl)imidazo[4,5-b]pyridin-3-yl]-2,3-dihydro-1H-inden-1-yl]amino}-2-azabicyclo[2.2.1]heptan-2-yl]prop-2-en-1-one]
10 | 6.70 | 6.01 | – | 7.70 | 6.43 | C=CC(=O)N1CCC(NC2CCc3cc(-n4c(-c5cccnc5N)nc5ccc(C6CC6(F)F)nc54)ccc32)CC1 (single isomer, unassigned) [Example 244, 1-(4-(((*)-5-(2-(2-aminopyridin-3-yl)-5-((*)-2,2-difluorocyclopropyl)-3H-imidazo[4,5-b]pyridin-3-yl)-2,3-dihydro-1H-inden-1-yl)amino)piperidin-1-yl)prop-2-en-1-one]
11 | 7.44 | 7.03 | – | 7.48 | 7.23 | C=CC(=O)N1CCC(N[C@H]2CCc3cc(-n4c(-c5cccnc5N)nc5ccc(-n6cccn6)nc54)ccc3C2)CC1 [Example 296, 1-(4-{[(2S)-6-[2-(2-aminopyridin-3-yl)-5-(pyrazol-1-yl)imidazo[4,5-b]pyridin-3-yl]-1,2,3,4-tetrahydronaphthalen-2-yl]amino}piperidin-1-yl)prop-2-en-1-one]
12 | 5.95 | 7.27 | 5.31 | 7.00 | – | C=CC(=O)N1CCCC(N[C@H]2CCc3cc(-n4c(-c5cccnc5N)nc5ccc(-n6cccn6)nc54)ccc32)C1 (single isomer, unassigned) [Example 124, 1-[(3*)-3-{[(1S)-5-[2-(2-aminopyridin-3-yl)-5-(pyrazol-1-yl)imidazo[4,5-b]pyridin-3-yl]-2,3-dihydro-1H-inden-1-yl]amino}piperidin-1-yl]prop-2-en-1-one]
13 | 6.54 | 7.80 | 6.31 | 7.12 | – | C=CC(=O)N1C[C@H]2COC[C@@H](C1)C2N[C@H]1CCc2cc(-n3c(-c4cccnc4N)nc4ccc(-n5cccn5)nc43)ccc21 (single isomer, unassigned) [Example 72, 1-((1R,5S,9*)-9-(((S)-5-(2-(2-aminopyridin-3-yl)-5-(1H-pyrazol-1-yl)-3H-imidazo[4,5-b]pyridin-3-yl)-2,3-dihydro-1H-inden-1-yl)amino)-3-oxa-7-azabicyclo[3.3.1]nonan-7-yl)prop-2-en-1-one]
14 | 6.92 | 8.41 | 7.03 | 7.69 | – | C=CC(=O)N1CCC(N[C@H]2CCc3cc(-n4c(-c5cccnc5N)nc5ccc(-n6cccn6)nc54)ccc32)C(F)C1 (single isomer, unassigned) [Example 106, 1-((3*,4*)-4-(((S)-5-(2-(2-aminopyridin-3-yl)-5-(1H-pyrazol-1-yl)-3H-imidazo[4,5-b]pyridin-3-yl)-2,3-dihydro-1H-inden-1-yl)amino)-3-fluoropiperidin-1-yl)prop-2-en-1-one]
15 | 7.15 | 7.82 | – | 7.48 | 6.08 | C=CC(=O)N1CCc2c(C(=O)N[C@H]3CCc4cc(-n5c(-c6cccnc6N)nc6ccc(-n7cccn7)nc65)ccc43)cccc21 [Example 3, N-[(1S)-5-[2-(2-aminopyridin-3-yl)-5-(pyrazol-1-yl)imidazo[4,5-b]pyridin-3-yl]-2,3-dihydro-1H-inden-1-yl]-1-(prop-2-enoyl)-2,3-dihydroindole-4-carboxamide]
16 | 7.34 | 6.19 | 7.08 | 7.53 | – | C=CC(=O)N1CCC(N[C@H]2CCc3cc(-n4c(-c5cccnc5N)nc5ccc(-n6nccn6)nc54)ccc32)C[C@H]1C (single isomer, unassigned) [Example 262, 1-[(2R,4*)-4-{[(1S)-5-[2-(2-aminopyridin-3-yl)-5-(1,2,3-triazol-2-yl)imidazo[4,5-b]pyridin-3-yl]-2,3-dihydro-1H-inden-1-yl]amino}-2-methylpiperidin-1-yl]prop-2-en-1-one]
17 | 7.07 | 7.98 | 6.98 | 7.66 | – | C=CC(=O)N1CCC(N[C@H]2CCc3cc(-n4c(-c5cccnc5N)nc5ccc(-n6cccn6)nc54)ccc32)C1 (single isomer, unassigned) [Example 57, 1-((*)-3-(((S)-5-(2-(2-aminopyridin-3-yl)-5-(1H-pyrazol-1-yl)-3H-imidazo[4,5-b]pyridin-3-yl)-2,3-dihydro-1H-inden-1-yl)amino)pyrrolidin-1-yl)prop-2-en-1-one]
18 | 5.40 | 6.39 | 5.55 | < 6.00 | – | C=CC(=O)N1CCOCC(N[C@H]2CCc3cc(-n4c(-c5cccnc5N)nc5ccc(-n6cccn6)nc54)ccc32)C1 (single isomer, unassigned) [Example 53, 1-((*)-6-(((S)-5-(2-(2-aminopyridin-3-yl)-5-(1H-pyrazol-1-yl)-3H-imidazo[4,5-b]pyridin-3-yl)-2,3-dihydro-1H-inden-1-yl)amino)-1,4-oxazepan-4-yl)prop-2-en-1-one]

Source: patent publication US12570655B2, “Cysteine covalent modifiers of AKT1 and uses thereof” (Terremoto Biosciences, Inc., priority 2023, dated 2026)
